Patent publication US5665765A, “5,6,7,8-tetrahydronaphtho[2,3-b]furan and indano[5,6-b]furan amine compounds” (Adir et Compagnie, priority 1995, dated 1997)
Read-outs that look alike come from different tables or passages of the source.

Key:
[1] = biological target: T1, human dopamine D3 receptor (Homo sapiens, UniProt P35462); test: binding to human D3 receptors expressed in CHO cells ([125I]-iodosulpride)
T1 construct: expressed in transfected cells; membranes
Procedure: (§1) STUDY OF THE BINDING OF THE COMPOUNDS OF THE INVENTION TO HUMAN D2 AND D3 RECEPTORS EXPRESSED IN CHO CELLS
(§2) CHO (Chinese Hamster Ovary) cells were transfected in a stable manner by the gene coding for the human dopamine D2 or D3 receptor according to methods known from the literature. The native cells are deficient in the enzyme DHFR (DiHydroFolate Reductase). Those cells are cultured in a vessel at 37° C. in a humid atmosphere of 5% CO2 : 95% air. The transfections were carried out using Lipofectine (Gibco). The CHO cells, cotransfected with the human D2 receptor and the gene for resistance to phleomycin, were selected for their resistance to the presence of that antibiotic in the culture medium. The cells transfected with the human D3 receptor were selected in a medium lacking in hypoxanthine/thymidine, in the presence of methotrexate. The compositions of the culture media used are, for CHO--D2 : DMEM (Dulbecco's Modified Eagle Medium) supplemented with 10% foetal calf serum and hypoxanthine/thymidine and, for CHO--D3 : DMEM supplemented with 10% dialysed foetal calf serum. The confluent cells are harvested and the membranes are then prepared.
After a few minutes in the presence of 0.2% trypsin, the cells are recovered and centrifuged at 2000 g for 5 minutes. The cell mass, resuspended in […] tris-HCl buffer, pH 7.5, containing 5 mM MgSO4, is then […] over Polytron®. The homogenate is then centrifuged at 50 000 g for 15 minutes, and the mass is resuspended by gentle sonication in an incubation buffer of the following composition: 50 mM tris-HCl, pH 7.5, containing 120 mM NaCl, 5 mM KCl, 2 mM CaCl2 and 5 mM MgCl2. The membranes are then divided into aliquots and preserved at -80° C. until the day of the experiment.
The incubation is carried out in polypropylene tubes at a final volume of 400 μl containing:
100 μl of [^125 I]-iodosulpride (Amersham) at 0.1 and 0.2 nM for the D2 and D3 receptors respectively.
100 μl of buffer (total tubes)
100 μl of raclopride 10 μM (non-specific binding)
200 μl of membrane preparation containing the D2 or D3 receptors, in a buffer to which
0.2% BSA (bovine serum albumin) has been added.
(§3) The ranges of concentration of each compound include at least 7 points determined in triplicate; each experiment is repeated at least twice.
The incubation, which lasts 30 minutes at 30° C., is terminated by rapid filtration in a Brandle apparatus, followed by three consecutive washes with tris-HCl buffer, pH 7.4, containing 120 m M NaCl. The filters recovered are then counted with a gamma counter.
The IC50, which represents the concentration that gives a 50% inhibition of the binding of the radioligand, is calculated by non-linear regression (Prism Graph method). The Ki value is derived from the formula Ki=IC50 (1+L/Kd) where L is the concentration of [^125 I]-iodosulpride used in the experiment and Kd its dissociation constant. The results are expressed in the form of pKi (pKi=-logKi).

[2] = biological target: T2, human dopamine D2 receptor (Homo sapiens, UniProt P14416); test: binding to human D2 receptors expressed in CHO cells ([125I]-iodosulpride); conditions: radioligand dissociation constant used in Ki formula
T2 construct: expressed in transfected cells; membranes
T2 sequence (P14416 whole entry): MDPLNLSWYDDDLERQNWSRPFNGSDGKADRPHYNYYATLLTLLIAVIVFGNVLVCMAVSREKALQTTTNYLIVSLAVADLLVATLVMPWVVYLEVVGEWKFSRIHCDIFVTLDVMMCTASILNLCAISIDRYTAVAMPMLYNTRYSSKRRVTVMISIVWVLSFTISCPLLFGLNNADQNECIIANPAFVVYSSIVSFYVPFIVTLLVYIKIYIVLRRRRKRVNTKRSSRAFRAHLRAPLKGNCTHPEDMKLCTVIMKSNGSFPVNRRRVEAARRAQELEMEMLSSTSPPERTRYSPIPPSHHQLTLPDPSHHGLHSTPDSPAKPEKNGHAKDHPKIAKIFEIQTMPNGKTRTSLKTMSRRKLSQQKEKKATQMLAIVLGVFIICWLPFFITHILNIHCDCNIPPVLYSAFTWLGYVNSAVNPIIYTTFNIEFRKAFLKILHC
Procedure: as §1
as §2, with “The compositions of the culture media used are, for CHO--D2 : DMEM (Dulbecco's Modified Eagle Medium) supplemented with 10% foetal calf serum and hypoxanthine/thymidine and, for CHO--D3 : DMEM supplemented with 10% dialysed foetal calf serum. The confluent cells are harvested and the membranes are then prepared.” left out
as §3
The incubation, which lasts 30 minutes at 30° C., is terminated by rapid filtration in a Brandle apparatus, followed by three consecutive washes with tris-HCl buffer, pH 7.4, containing 120 m M NaCl. The filters recovered are then counted with a gamma counter. […]

[3] = [125I]-iodosulpride 0.2 nM, CHO cell membranes, 30 min at 30° C., pKi=-logKi, read-out: pKi (human D3) (converted)

T1 sequence (P35462 whole entry): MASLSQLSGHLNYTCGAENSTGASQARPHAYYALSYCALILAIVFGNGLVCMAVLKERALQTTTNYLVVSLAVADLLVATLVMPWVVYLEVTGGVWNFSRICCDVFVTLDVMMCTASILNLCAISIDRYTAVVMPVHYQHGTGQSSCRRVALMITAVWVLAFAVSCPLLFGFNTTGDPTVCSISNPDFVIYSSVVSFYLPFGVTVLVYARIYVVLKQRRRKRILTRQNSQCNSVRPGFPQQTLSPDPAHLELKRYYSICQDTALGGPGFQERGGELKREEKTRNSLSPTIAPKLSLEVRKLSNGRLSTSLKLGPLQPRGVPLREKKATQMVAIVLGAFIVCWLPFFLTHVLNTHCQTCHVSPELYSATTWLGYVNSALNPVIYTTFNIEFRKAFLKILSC

Molecule	Ki [1, 3] [nM]	also measured
CN(CC1CCCCC1)C1CCc2cc3c(cc2C1)OCC3 (stereo not drawn)	151	–
[^125 I]-iodosulpride	–	Kd ([1]; radioligand dissociation constant used in Ki formula): 1.31 nM; Kd [2]: 0.5 nM
CCCN[C@@H]1CCc2c(OC)cccc2[C@@H]1C [AJ 76, [cis(+)-1S,2R]-5-methoxy-1-methyl-2-n-propylaminotetralin]	–	Ki [1]: 69.2 nM; selectivity for the D3 receptor compared with the D2 receptor ([1]; human D3 vs D2 binding): 2
CN(C)C1CCc2cc3c(cc2C1)OCC3 (stereo not drawn)	209	–
NC1CCc2cc3c(cc2C1)OCC3 (stereo not drawn)	158	–
NC1CCc2cc3ccoc3cc2C1 (stereo not drawn)	389	–
FC(F)(F)CNC1CCc2cc3c(cc2C1)OCC3 (stereo not drawn)	10000	–
CCOCCNC1CCc2cc3c(cc2C1)OCC3 (stereo not drawn)	759	–

Second part, led by results:

Ki [1, 3] [nM]	Molecule	also measured
1170	c1ccc(CNC2CCc3cc4c(cc3C2)OCC4)cc1 (stereo not drawn)	–
3.47	CCCN(CCCc1ccc2c(c1)CC(=O)N2)C1CCc2cc3c(cc2C1)OCC3 (racemic) [Example 7, (7RS)-7-{N-[3-((3H)-indol-2-on-5-yl)propyl]-N-propylamino}-5,6,7,8-tetrahydronaphtho[2,3-b]2,3-dihydrofuran]	–
3.55	CCCN(CCCc1ccc(NC(C)=O)cc1)C1CCc2cc3c(cc2C1)OCC3 (racemic) [Example 13]	–
2.24	CCCN(CCc1ccc(O)cc1)C1CCc2cc3c(cc2C1)OCC3 (racemic) [Example 3, (7RS)-7-{N-[2-(4-hydroxyphenyl)ethyl]-N-propylamino}-5,6,7,8-tetrahydronaphtho[2,3-b]2,3-dihydrofuran]	–
1.15	CCCN(CCc1ccc2c(c1)CC(=O)N2)C1CCc2cc3c(cc2C1)OCC3 (racemic) [Example 6, (7RS)-7-{N-[2-((3H)-indol-2-on-5-yl)ethyl]-N-propylamino}-5,6,7,8-tetrahydronaphtho[2,3-b]2,3-dihydrofuran]	–
